{
  "source": "patent US8802082B2",
  "about": "“Rhodamine derivatives for photodynamic diagnosis and treatment” (Université de Montreal, priority 1999, dated 2014)",
  "type_in_all_cases": "cell-based, human",
  "key": {"[1]": {"system": "PHA-activated PB mononuclear cells", "assay": "Phototoxicity against PHA-activated PB mononuclear cells (mixed lymphocyte reaction, 3H-thymidine; cell counts)", "method": "Suspensions of cells were then incubated with 10 μM TH9402 for 40 minutes at 37° C. Cells were treated at 1×10^6 cells/mL in X-vivo-15 medium without phenol red (BioWhittaker, Walkersville, Md., USA) supplemented with 2,5% FBS. At the end of the incubation period, cells were spun down and the cell pellet resuspended in the X-vivo culture medium in the absence of dye, supplemented with 10% FBS. Cells were then placed in T-flasks (Corning, Cambridge, Mass., USA) for 90 minutes at 37° C. […]\nNormal PBMC were activated by incubation at 37° C. for 48 to 72 hours in X-vivo-15 medium (Biowhittaker, Walkersville. Md. U.S.A.) supplemented with 20% AB serum (Sigma), 1% pen-strep (Gibco), 2% glutamin (Gibco) and 20 μg/ml of phytohemagglutinin-A (PHA-P)(Sigma). […] Following incubation, cells were washed and treated with the TH9402 photodynamic treatment as described above, and proliferative activity measured as described below.\nThe latter cells were serially diluted in order to obtain effector (treated cells) to target ratios ranging from 2:1 to 1:4 (4×10^4 treated effector cells/well) and incubated at 37° C. for 5 days. […] Radioactivity in the cell harvest was counted using a liquid scintillation counter (Beckman, Chicago, Ill., USA).\nThe phototoxicity of TH9402 against PHA-activated PB mononuclear cells was assessed after photodynamic treatment using 5 and 7.5 joules/cm^2 of light energy (FIG. 2). […]"}, "[2]": {"system": "activated lymphocytes", "assay": "Cellular content/efflux of TH9402 by flow cytometry, activated lymphocytes", "settings": "10 μM TH9402, wash with 1 μg/ml cyclosporin-A, 110 minutes", "method": "TH9402 cellular content in resting and activated lymphocytes was evaluated by flow-cytometry, since the intensity of TH9402 (green) fluorescence correlates with the cellular content in TH9402. Briefly, 10^6 cells/ml, previously activated or not with PHA, were incubated in X-vivo-5 medium supplemented with 2.5% human AB serum and 10 μM TH9402 for 40 minutes. These cells were washed two times with X-vivo medium supplemented with 10% AB serum and cells analysed by flow cytometry 30, 50, 70, 90 and 110 min after the end of the TH9402 incorporation period. […] Since cellular concentration of TH9402 correlates with the extent of cell elimination, the high concentration of TH9402 maintained in activated lymphocytes explains their sensitivity to photodynamic therapy. In contrast, the rapid efflux of TH9402 from resting lymphocytes should explain preservation of their proliferative activity.\nIn order to identify the mechanism responsible for the differential retention of TH9402 between activated and resting lymphocytes, cyclosporin-A was used to block the multidrug transporter (P-gp 170). These cells were incubated with 10 μM TH9402 for 8 minutes, and washed with medium containing 1 μg/ml cyclosporin-A or medium alone. TH9402 retention was subsequently evaluated by flow-cytometry (green fluorescence) (FIG. 5). […]"}, "[3]": {"system": "non-lymphoid hematopoietic progenitors (CFU-GM, BFU-E, CFU-GEMM)", "assay": "Clonogenic assay of hematopoietic progenitors in methylcellulose after PDT", "settings": "same conditions of PDT as for B cells", "method": "To evaluate the potential of PDT with TH9402 to eliminate other immune cell populations, normal human B cells were used as targets. Mononuclear cells from normal donors were obtained by leukopheresis, and resuspended at 20 million cells per ml during the whole PDT process. Cells were centrifuged and resuspended in pre-warmed (37° C.) X-Vivo-15 medium supplemented with 2.5% FCS and 10 U/ml heparin, with 5 μM TH9402. After 40 minutes of incubation at 37° C., cells were washed and resuspended in a X-Vivo-15 medium and 10% FCS with 10 U/ml heparin (medium free of TH9402) for an efflux period of 50 minutes before exposure to light energy (10 to 30 Joules/cm^2). Cells underwent light exposure at 20 million cells per ml and at a thickness of 2 cm.\nTo verify that the treatment preserved normal hematopoetic progenitors, we have used a clonogenic assay to measure the amount of hematopoetic clonogenic precursors present in the same samples. […]\nNormal human mononuclear cells were obtained and subjected to various PDP conditions to determine the efficacy of eradication of B cells, specificity and safety of the procedure. […] In contrast, when these cells were evaluated for the elimination of non-lymphoid hematopoietic progenitors, usually less than 50% (half of a logarithm) of these progenitors were eliminated by the same conditions of PDT (FIG. 7B). […]"}},
  "data": [
    {"smiles": "Br.COC(=O)c1ccccc1-c1c2ccc(=N)c(Br)c-2oc2c(Br)c(N)ccc12", "note": "[TH9402, 4,5-dibromorhodamine 123 (2-(4,5-dibromo-6-amino-3-imino-3H-xanthen-9-yl)-benzoic acid methyl ester) hydrobromide]", "values": [
      {"measurement": "reactivity towards MHC incompatible cells (proliferation in mixed lymphocyte culture)", "setting": "[1]; PHA-activated cells treated with TH9402, 5 and 7.5 J/cm^2", "value": "abrogated"},
      {"measurement": "decrease of cell counts of the treated cells in comparison to the medium control", "setting": "[1]; three days after the photodynamic treatment", "value": "> 90", "unit": "%"},
      {"measurement": "fluorescence intensity in activated cells treated or not treated with cyclosporin A", "setting": "[2]", "value": "identical"},
      {"measurement": "non-lymphoid hematopoietic progenitors eliminated", "setting": "[3]", "value": "less than 50%"}
    ]}
  ]
}
